# Data from ChEMBL document CHEMBL2331141, “Synthesis, characterization, screening and docking analysis of 4-anilinoquinazoline derivatives as tyrosine kinase inhibitors” (Eur J Med Chem, 2013).
# Molecular target: T1, Epidermal growth factor receptor (Homo sapiens, UniProt P00533)
# Test: Inhibition of EGFR (unknown origin) using biotinylated-PTP1B (Tyr66) as substrate incubated for 5 mins prior to substrate addition measured after 1 hr by ELISA
# T1 sequence (P00533 whole entry): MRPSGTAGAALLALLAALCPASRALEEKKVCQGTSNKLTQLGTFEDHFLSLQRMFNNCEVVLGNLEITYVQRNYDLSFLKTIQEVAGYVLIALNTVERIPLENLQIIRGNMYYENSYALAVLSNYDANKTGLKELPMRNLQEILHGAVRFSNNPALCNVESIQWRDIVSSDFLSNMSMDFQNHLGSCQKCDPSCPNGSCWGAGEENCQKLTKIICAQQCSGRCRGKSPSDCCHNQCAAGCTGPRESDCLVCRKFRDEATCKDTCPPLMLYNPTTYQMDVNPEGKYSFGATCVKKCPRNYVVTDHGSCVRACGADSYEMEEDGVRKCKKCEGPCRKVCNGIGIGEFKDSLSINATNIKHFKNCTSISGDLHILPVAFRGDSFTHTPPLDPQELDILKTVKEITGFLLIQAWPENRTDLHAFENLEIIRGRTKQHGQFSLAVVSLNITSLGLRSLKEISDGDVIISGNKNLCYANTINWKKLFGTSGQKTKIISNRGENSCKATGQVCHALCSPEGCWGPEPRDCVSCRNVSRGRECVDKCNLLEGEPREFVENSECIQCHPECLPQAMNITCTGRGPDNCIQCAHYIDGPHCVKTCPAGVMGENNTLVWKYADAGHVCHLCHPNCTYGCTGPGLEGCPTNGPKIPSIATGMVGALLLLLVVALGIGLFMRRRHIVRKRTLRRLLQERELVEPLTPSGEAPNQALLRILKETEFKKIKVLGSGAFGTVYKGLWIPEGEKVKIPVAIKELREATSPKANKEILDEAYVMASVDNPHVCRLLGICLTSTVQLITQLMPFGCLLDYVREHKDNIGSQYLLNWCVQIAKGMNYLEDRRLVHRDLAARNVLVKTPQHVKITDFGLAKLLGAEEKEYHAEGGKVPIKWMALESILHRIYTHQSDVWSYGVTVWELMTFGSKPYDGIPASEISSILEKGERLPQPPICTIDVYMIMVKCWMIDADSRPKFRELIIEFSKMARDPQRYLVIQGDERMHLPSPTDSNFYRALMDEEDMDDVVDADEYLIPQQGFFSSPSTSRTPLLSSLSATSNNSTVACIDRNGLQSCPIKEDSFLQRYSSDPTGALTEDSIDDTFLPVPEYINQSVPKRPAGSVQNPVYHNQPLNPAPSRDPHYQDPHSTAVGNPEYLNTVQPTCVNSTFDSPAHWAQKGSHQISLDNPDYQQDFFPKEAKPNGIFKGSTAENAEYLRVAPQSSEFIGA
row,IC50,SMILES
1,127 nM,COc1cc2ncnc(Nc3cccc(SC)c3)c2cc1OC
2,413 nM,COc1cc2ncnc(Nc3cccc(C#N)c3)c2cc1OC

# Second part, the compound before the results:
row,SMILES,IC50
1,COc1cc2ncnc(Nc3ccccc3)c2cc1OC,201 nM
2,COc1cc2ncnc(Nc3ccc(F)c(Cl)c3)c2cc1OCCCNCCN,13.6 nM
3,COc1cc2ncnc(Nc3cccc(-c4ccccc4)c3)c2cc1OC,127 nM
4,COc1cc2ncnc(Nc3ccc(F)c(Cl)c3)c2cc1OCCNCCN,12.1 nM
5,COc1cc2ncnc(Nc3ccc(F)c(Cl)c3)c2cc1OCCO,63.4 nM

# Molecular target: T1, Epidermal growth factor receptor
# Test: Inhibition of EGFR (unknown origin)
row,IC50,SMILES
1,10000 nM,COc1cc2ncnc(Nc3ccccc3C(F)(F)F)c2cc1OC
2,4700 nM,COc1cc2ncnc(Nc3ccc(C(C)(F)F)cc3)c2cc1OC
3,15 nM,COc1cc2ncnc(Nc3cccc(C(F)(F)F)c3)c2cc1OC
